# According to article PMC9490236, “Accurate de novo design of membrane-traversing macrocycles” (Cell, 2022):
# Where two headings read alike, the source gives them in different places. Where a SMILES comes first, the peptide text is derived from it. [ ]: non-standard residue; d: D form. ξ: configuration not given here. dNMeI = CC[C@@H](C)[C@@H](NC)C(=O)O; NMeF = CN[C@@H](Cc1ccccc1)C(=O)O; dIle(3ξ) = CCC(C)[C@@H](N)C(=O)O; dNMeF = CN[C@H](Cc1ccccc1)C(=O)O; NMeL = CN[C@@H](CC(C)C)C(=O)O; dNMeL = CN[C@H](CC(C)C)C(=O)O; dNMeV = CN[C@@H](C(=O)O)C(C)C; NMeA = CN[C@@H](C)C(=O)O; dNMeA = CN[C@H](C)C(=O)O
# Experiments:
# [1] = PAMPA, apparent permeability (Papp) in PAMPA
# [2] = PAMPA
# [3] = Caco-2 permeability assay (apical to basolateral); assay type: in vitro ADME, human; details: for Papp A→B: Caco-2, Caco_Papp_Average
# Outline: (§1)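 Apical-to-basolateral flux was determined by LC-MS of both compartments after 90 min at 37°C on an orbital shaker, with 50 μM peptide on the apical side and HBSS below. Monolayers were grown for 6 days in an accelerated Caco-2 Transwell format and verified by TEER before and after the run.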
# Caco-2 cells = experiment: Caco-2 permeability assay (apical to basolateral); assay type: in vitro ADME, human; details: Caco-2
# Outline: as §1
# in vitro = details: PAMPA, PAMPA_Papp_Avg
# [4] = Parallel artificial membrane permeability assay (PAMPA); details: for PAMPA_R1 / PAMPA_R3: PAMPA Papp; for PAMPA_R1: replicate 1; for PAMPA_R3: replicate 3; for Papp: PAMPA
# [5] = BQL = no significant peak detected for the peptide in the acceptor wells
# [6] = BQL: No significant peak detected for the peptide in the acceptor wells
# [7] = average of 3 replicates, BQL: No significant peak detected for the peptide in the acceptor wells
SMILES,PAMPA_R1 [2],PAMPA_R3 [2],Papp A→B [3],Caco_R1 (Caco-2 cells),Caco_R3 (Caco-2 cells),Papp (in vitro),other results
"CC[C@H](C)[C@@H]1NC(=O)[C@H](Cc2ccccc2)N(C)C(=O)[C@H]2CCCN2C(=O)[C@H]([C@@H](C)CC)NC(=O)[C@@H](C)N(C)C(=O)[C@@H](C)NC(=O)[C@@H]2CCCN2C(=O)[C@H]2CCCN2C(=O)[C@H](CC(C)C)NC(=O)[C@@H](CC(C)C)NC(=O)[C@H](CC(C)C)NC(=O)[C@H]2CCCN2C1=O [Design D12.6, DPRO *PHE ILE DPRO LEU DLEU LEU DPRO PRO DALA *DALA ILE] (cyclo([dA][dNMeA]I[dP][NMeF]I[dP]L[dL]L[dP]P))",2.43E-06,1.22E-06,2.84 ×10⁻⁶ cm/s,2.06,4.18,1.47 ×10⁻⁶ cm/s,"Papp [1]: 1.47 ×10⁻⁶ cm/s; Papp at 90 min, 50 µM ([3]; human, Caco-2): 2.84 ×10⁻⁶ cm/s"
"CC[C@@H](C)[C@H]1NC(=O)[C@@H]2CCCN2C(=O)[C@@H](Cc2ccccc2)N(C)C(=O)[C@@H](CC(C)C)N(C)C(=O)[C@@H](C(C)C)NC(=O)[C@@H](CC(C)C)N(C)C(=O)[C@H](Cc2ccccc2)N(C)C(=O)[C@H](C(C)C)NC(=O)[C@H]2CCCN2C1=O [Design D9.7, VAL *PHE *DLEU DVAL *DLEU *DPHE PRO DILE DPRO] (cyclo([NMeF][dNMeL][dV][dNMeL][dNMeF]P[dI][dP]V))",–,–,–,–,–,–,"PAMPA_R1 [4, 5]: BQL; PAMPA_R3 [4, 5]: BQL; PAMPA_Papp_Avg ([4]; average of replicates R1-R3, BQL = no significant peak detected for the peptide in the acceptor wells): BQL"
"CC[C@@H](C)[C@H]1NC(=O)[C@H]2CCCN2C(=O)[C@H]([C@@H](C)CC)NC(=O)[C@@H]2CCCN2C(=O)[C@H]2CCCN2C(=O)[C@@H](CC(C)C)NC(=O)[C@H](CC(C)C)NC(=O)[C@H](C(C)C)NC(=O)[C@H](CC(C)C)NC(=O)[C@H](C)NC(=O)[C@H](C)NC(=O)[C@@H]2CCCN2C1=O [Design D12.1, PRO ILE DPRO DILE PRO ALA ALA LEU VAL LEU DLEU DPRO] (cyclo(I[dP][dI]PAALVL[dL][dP]P))",–,–,–,–,–,–,"PAMPA_R1 [4, 6]: BQL; PAMPA_R3 [4, 6]: BQL; PAMPA_Papp_Avg [4, 7]: BQL"
"CC[C@@H](C)[C@H]1NC(=O)[C@@H](C)N(C)C(=O)[C@H](CC(C)C)NC(=O)[C@@H](CC(C)C)NC(=O)[C@H]2CCCN2C(=O)[C@H](CC(C)C)N(C)C(=O)[C@@H](C(C)C)NC(=O)[C@@H](CC(C)C)N(C)C(=O)[C@H](C(C)C)NC(=O)[C@@H](C(C)C)NC(=O)[C@@H]2CCCN2C(=O)[C@H]2CCCN2C1=O [Design D12.10, *LEU DPRO DLEU LEU *DALA DILE DPRO PRO DVAL VAL *DLEU DVAL] (cyclo([dV]V[dNMeL][dV][NMeL][dP][dL]L[dNMeA][dI][dP]P))",–,–,–,–,–,–,"PAMPA_R1 [4, 6]: BQL; PAMPA_R3 [4, 6]: BQL; PAMPA_Papp_Avg [4, 7]: BQL"
"CC(C)C[C@@H]1NC(=O)[C@H](CC(C)C)N(C)C(=O)[C@H]2CCCN2C(=O)[C@H]2CCCN2C(=O)[C@H](CC(C)C)NC(=O)[C@@H](CC(C)C)N(C)C(=O)[C@@H](C)NC(=O)[C@@H](CC(C)C)N(C)C(=O)[C@H]2CCCN2C(=O)[C@@H](CC(C)C)NC(=O)[C@@H](C)N(C)C1=O [Design D11.15, LEU DPRO DPRO *LEU LEU *DALA DLEU DPRO *DLEU DALA *DLEU] (cyclo(L[dNMeA][dL][dP][dNMeL][dA][dNMeL]L[dP][dP][NMeL]))",–,–,–,–,–,–,"Papp [4]: 1.29 ×10⁻⁶ cm/s; PAMPA_R1 [4, 6]: 9.49E-07; PAMPA_R3 [4, 6]: 1.56E-06"
"CC[C@@H](C)[C@H]1NC(=O)[C@@H](CC(C)C)N(C)C(=O)[C@@H]2CCCN2C(=O)[C@H](C(C)C)NC(=O)[C@@H](C)N(C)C(=O)[C@@H]2CCCN2C(=O)[C@@H](CC(C)C)NC(=O)[C@@H](C(C)C)N(C)C(=O)[C@@H]2CCCN2C(=O)[C@H](C)NC(=O)[C@H](C(C)C)NC(=O)[C@@H]2CCCN2C1=O [Design D12.5, VAL PRO *DLEU DILE PRO VAL ALA PRO *DVAL DLEU PRO *DALA] (cyclo(AP[dNMeV][dL]P[dNMeA]VP[dNMeL][dI]PV))",–,–,–,–,–,–,"Papp [4]: 0.1 ×10⁻⁶ cm/s; PAMPA_R1 [4, 6]: 1.24E-07; PAMPA_R3 [4, 6]: 1.52E-07"
"CC[C@H](C)[C@@H]1NC(=O)[C@@H]2CCCN2C(=O)[C@H]2CCCN2C(=O)[C@@H](CC(C)C)NC(=O)[C@@H](CC(C)C)N(C)C(=O)[C@@H](C(C)C)NC(=O)[C@H](C(C)C)NC(=O)[C@H]2CCCN2C(=O)[C@@H]2CCCN2C(=O)[C@H]([C@@H](C)CC)NC(=O)[C@H](C)N(C)C1=O [Design D11.13, PRO DPRO VAL DVAL *DLEU DLEU DPRO PRO ILE *ALA ILE] (cyclo(I[NMeA]IP[dP]V[dV][dNMeL][dL][dP]P))",9.91E-07,1.30E-06,4.5 ×10⁻⁶ cm/s,4.34,4.75,1.07 ×10⁻⁶ cm/s,–
"CC[C@H](C)[C@@H]1NC(=O)[C@@H](CC(C)C)N(C)C(=O)[C@H](CC(C)C)N(C)C(=O)[C@@H](Cc2ccccc2)NC(=O)[C@@H](CC(C)C)N(C)C(=O)[C@H]2CCCN2C(=O)[C@H]2CCCN2C(=O)[C@@H]2CCCN2C(=O)[C@@H](C(C)C)NC(=O)[C@@H]2CCCN2C(=O)[C@H](C)NC1=O [Design D11.11, PRO DPRO DPRO *DLEU DPHE *LEU *DLEU ILE ALA PRO DVAL] (cyclo(AP[dV]P[dP][dP][dNMeL][dF][NMeL][dNMeL]I))",1.97E-06,2.38E-06,4.92 ×10⁻⁶ cm/s,2.88,5.78,2.26 ×10⁻⁶ cm/s,–
"CC(C)C[C@@H]1NC(=O)[C@H](Cc2ccccc2)NC(=O)[C@@H](CC(C)C)NC(=O)[C@H]2CCCN2C(=O)[C@H](C(C)C)NC(=O)[C@@H](CC(C)C)NC(=O)[C@H]2CCCN2C(=O)[C@@H]2CCCN2C1=O [Design D8.5.p2, PHE LEU PRO DPRO DLEU VAL DPRO DLEU] (cyclo(FLP[dP][dL]V[dP][dL]))",5.46E-06,5.67E-06,21.4 ×10⁻⁶ cm/s,17.839,20.36,5.8 ×10⁻⁶ cm/s,–
"CC[C@@H](C)[C@H]1NC(=O)[C@H]([C@@H](C)CC)NC(=O)[C@H](Cc2ccccc2)N(C)C(=O)[C@H]2CCCN2C(=O)[C@@H]([C@H](C)CC)NC(=O)[C@@H]([C@H](C)CC)N(C)C(=O)[C@H](CC(C)C)NC(=O)[C@H]2CCCN2C(=O)[C@@H]2CCCN2C(=O)[C@H](C(C)C)NC(=O)[C@H]2CCCN2C1=O [Design D11.4, VAL PRO DPRO LEU *DILE DILE DPRO *PHE ILE DILE DPRO] (cyclo(I[dI][dP]VP[dP]L[dNMeI][dI][dP][NMeF]))",1.64E-06,6.73E-07,4.99 ×10⁻⁶ cm/s,3.83,6.55,1.47 ×10⁻⁶ cm/s,–
"CCC(C)[C@H]1NC(=O)[C@H](CC(C)C)NC(=O)[C@@H](C)N(C)C(=O)[C@@H]2CCCN2C(=O)[C@H](C)NC(=O)[C@@H](CC(C)C)NC(=O)[C@H]2CCCN2C(=O)[C@H](C(C)C)NC(=O)[C@@H](CC(C)C)N(C)C1=O (stereo partly drawn) [Design D9.30, DPRO DLEU ALA PRO *DALA LEU DILE *DLEU VAL] (cyclo(AP[dNMeA]L[dIle(3ξ)][dNMeL]V[dP][dL]))",1.58E-06,1.58E-06,2.32 ×10⁻⁶ cm/s,1.9,2.72,1.6 ×10⁻⁶ cm/s,–
"CC(C)C[C@@H]1NC(=O)[C@@H](CC(C)C)NC(=O)[C@H]2CCCN2C(=O)[C@H](CC(C)C)NC(=O)[C@@H](CC(C)C)NC(=O)[C@H](CC(C)C)NC(=O)[C@@H]2CCCN2C(=O)[C@@H](C)NC1=O [Design D8.1, DLEU LEU DPRO DLEU LEU DALA PRO LEU] (cyclo(L[dA]PL[dL]L[dP][dL]))",7.08E-06,6.42E-06,23.3 ×10⁻⁶ cm/s,27.58,23.71,6.94 ×10⁻⁶ cm/s,Papp ([3]; Caco-2): 23.3 ×10⁻⁶ cm/s
"CC(C)C[C@@H]1C(=O)N[C@H](CC(C)C)C(=O)N2CCC[C@@H]2C(=O)N2CCC[C@@H]2C(=O)N(C)[C@@H](CC(C)C)C(=O)N[C@H](CC(C)C)C(=O)N2CCC[C@@H]2C(=O)N2CCC[C@H]2C(=O)N1C [Design D8.32, DPRO DPRO *LEU DLEU DPRO PRO *DLEU DLEU] (cyclo([dNMeL][dL][dP][dP][NMeL][dL][dP]P))",5.82E-06,5.16E-06,2.73 ×10⁻⁶ cm/s,2.78,2.54,5.37 ×10⁻⁶ cm/s,–
"CC[C@H](C)[C@@H]1NC(=O)[C@@H](C(C)C)NC(=O)[C@@H](CC(C)C)N(C)C(=O)[C@H]2CCCN2C(=O)[C@@H](CC(C)C)NC(=O)[C@@H](CC(C)C)N(C)C(=O)[C@H](CC(C)C)NC(=O)[C@H]2CCCN2C(=O)[C@H](C)N(C)C(=O)[C@H]2CCCN2C1=O [Design D10.41, DPRO *DLEU DVAL ILE DPRO *ALA DPRO LEU *DLEU DLEU] (cyclo(I[dP][NMeA][dP]L[dNMeL][dL][dP][dNMeL][dV]))",5.92E-06,5.38E-06,7.66 ×10⁻⁶ cm/s,4.42,10.34,5.69 ×10⁻⁶ cm/s,–
